Measurements published in patent publication US6169074A, “Peptide inhibitors of neurotransmitter secretion by neuronal cells” (The Regents of the University of California, priority 1997, dated 2001).

Tests used:
[1] = test system: catecholamine release from permeabilized bovine chromaffin cells; type: cell-based; settings: for IC50: read-out: concentration reaching 50% inhibitory activity (inhibition of Ca2+ dependent secretion); for effect on Ca2+ dependent (Ca2+-triggered) secretion: peptides at 100 μM concentration, FIG. 7A
mouse neuron = experiment: Mouse neuron inhibition assay (Mehta, et al., 1996); type: cell-based
Method: ii. 47% at 2 μM; 87% at 20 μM, as measured in the mouse neuron inhibition assay described in, for example, Mehta, et al., Proc. Natl. Acad. Sci. USA, 93:10471-10476, 1996 (incorporated herein for purposes of reference).

Substance | IC50 [1] [nM] | effect on Ca2+ dependent (Ca2+-triggered) secretion [1] | also measured
170-EIDTQNRQIDRIMEKADSNK-189 [ESUP/E20h] | 1800 | – | –
181-IMEKADSNKTRIDEANQRATKMLGSG-206 [ESUP/E26h] | 250 | – | –
187-SNKTRIDEANQRATKMLGSG-206 [ESUP/A20h, 20-mer peptide encompassing the C-terminal region of SNAP-25 (aa 187-206)] | 12000 | – | Inhibitory Activity (mouse neuron; at 2 μM peptide): 47%; Inhibitory Activity (mouse neuron; at 20 μM peptide): 87%; Inhibitory Activity ([1]; at 100 μM peptide, bovine chromaffin cells): 65%
MLDEQGEQLER [SNAP-25(49-59), reference compound] | – | did not affect | –
TDSSGREMIKANKQLANGTR [ESUP/20Ah^RD, control peptide with the same amino acid composition as ESUP/A20h but in random order, reference compound] | – | no effect | –
